# Experimental data as given in paper PMC3430861, “The pharmacological profile of ELIC, a prokaryotic GABA-gated receptor” (Neuropharmacology, 2012).
# Read-outs that look alike come from different tables or passages of the source.
# How the values were obtained:
# ELIC [1] = target: T1, ELIC (Dickeya chrysanthemi, UniProt P0C7B7, INS163G); assay: cell-based; format: cell-based, Erwinia chrysanthemi
# T1 construct: expressed in transfected cells; host or cells: Xenopus laevis oocytes injected with cRNA
# Description: Xenopus laevis oocyte-positive females were purchased from NASCO (Fort Atkinson, Wisconsin, USA) and maintained according to standard methods.
# (§1) The ELIC sequence (Genbank accession number POC7B7) was purchased from Genscript as a synthetic gene with optimized codon usage for expression in Escherichia coli. […] Stage V and VI oocytes were injected with 20 ng cRNA, and currents recorded 1–3 days post-injection.
# ELIC [2] = target: T2, ELIC (Dickeya chrysanthemi, UniProt P0C7B7); assay: cell-based; format: cell-based, Erwinia chrysanthemi
# T2 sequence (P0C7B7 8-321): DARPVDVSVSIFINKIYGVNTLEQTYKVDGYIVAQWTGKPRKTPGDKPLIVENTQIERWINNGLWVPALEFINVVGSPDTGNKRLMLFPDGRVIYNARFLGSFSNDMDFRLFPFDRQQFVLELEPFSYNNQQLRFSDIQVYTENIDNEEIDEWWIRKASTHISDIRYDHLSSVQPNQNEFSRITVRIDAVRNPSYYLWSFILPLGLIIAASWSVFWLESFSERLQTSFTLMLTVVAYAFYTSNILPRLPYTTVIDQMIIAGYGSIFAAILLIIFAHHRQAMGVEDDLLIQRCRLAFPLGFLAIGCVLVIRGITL
# Description: Xenopus laevis oocyte-positive females were purchased from NASCO (Fort Atkinson, Wisconsin, USA) and maintained according to standard methods. Harvested stage V–VI Xenopus oocytes were washed in four changes of ND96 (96 mM NaCl, 2 mM KCl, 1 mM MgCl2, 5 mM HEPES, pH 7.5), de-folliculated in 1.5 mg ml^−1 collagenase Type 1A for approximately 2 h, washed again in four changes of ND96 and stored in ND96 containing 2.5 mM sodium pyruvate, […], 0.7 mM theophylline.
# as §1
# GLIC = system: GLIC; design: method as in Alqazzaz et al., 2011; settings: ref Alqazzaz et al., 2011, cited from earlier work; for inhibition of GLIC (yes/no): comparison ELIC vs GLIC
# [3] = system: RDL, a GABA-activated insect receptor; design: method as in McGonigle and Lummis, 2010; settings: ref McGonigle and Lummis, 2010; cited from earlier work
# [4] = 10 mM, read-out: pEC50 (EC50): agonist effect at the concentration shown (converted)
compound,measurement,setting,value
NC(=O)CC[C@H](N)C(=O)O [Glutamine],effect on ELIC (agonist test),ELIC [1]; 1 mM,no effect
same,effect when co-applied in the presence of GABA,ELIC [2],no effect
N[C@@H](CC(=O)O)C(=O)O [Aspartate],effect on ELIC (agonist test),ELIC [1]; 1 mM,no effect
N[C@@H](Cc1c[nH]c2ccccc12)C(=O)O [Tryptophan],effect on ELIC (agonist test),ELIC [1]; 1 mM,no effect
CN(C)CCCN1c2ccccc2Sc2ccc(Cl)cc21 [Chlorpromazine],inhibition of GLIC (yes/no),GLIC,inhibiting both receptors
same,inhibition of ELIC (yes/no),ELIC [2],inhibiting both receptors
same,nH,ELIC [2],1.2 ± 0.4
same,IC50,ELIC [2]; IC50,230 µM
same,IC50,ELIC [2]; pIC50 (Mean ± SEM),229 µM
C[C@@H]1C[C@H]2[C@@H]3CCC4=CC(=O)C=C[C@]4(C)[C@@]3(F)[C@@H](O)C[C@]2(C)[C@@]1(O)C(=O)CO [Dexamethasone],inhibition of ELIC (yes/no),ELIC [2]; comparison ELIC vs GLIC,inhibiting neither
CC[C@H](C)[C@H](N)C(=O)O [Isoleucine],effect on ELIC (agonist test),ELIC [1]; 1 mM,no effect
α-amino hydroxbutyric acid,effect on ELIC (agonist test),ELIC [1]; 10 mM,no effect
same,EC50,ELIC [1]; [4],> 10 mM
NCCCC(=O)O [GABA],Hill Slope,"ELIC [1]; wild type ELIC, agonist concentration-response",2.1 ± 0.6
same,pEC50,"ELIC [1]; wild type ELIC, oocytes clamped at −60 mV",2.78 ± 0.04
same,EC50,"ELIC [1]; wild type ELIC, oocytes clamped at −60 mV, read-out: EC50 (converted)",1.6 mM
O=C([O-])CCC(=O)[O-].[Na+].[Na+] [sodium succinate],effect on ELIC (agonist test),ELIC [1]; 10 mM,did not activate ELIC
same,EC50,ELIC [1]; [4],> 10 mM
O=C(O)[C@@H]1CCCN1 [Proline],effect on ELIC (agonist test),ELIC [1]; 1 mM,no effect
same,effect when co-applied in the presence of GABA,ELIC [2],no effect
O=C(O)CCCO [γ-hydroxybutyric acid],effect on RDL,[3],no effect
same,concentration required to activate ELIC,ELIC [1],> 10 mM
same,% of Rmax at 100 mM,"ELIC [1]; 100 mM, Rmax = maximal current relative to 10mM GABA",8.2 ± 3% of Rmax at 100 mM
CN1CCc2cc3c(cc2[C@H]1[C@@H]1OC(=O)c2c1ccc1c2OCO1)OCO3 [Bicuculline],effect when co-applied in the presence of GABA,ELIC [2]; 100 μM,no effect
same,pIC50: no inhibition,"ELIC [2]; wild type ELIC, at the GABA EC50 (1.6 mM)",NI* (no inhibition at 100 μM)
O=C(O)CCC(=O)O [succinic acid],effect on ELIC (agonist test),ELIC [1]; 10 mM,did not activate ELIC
NCCCC[C@H](N)C(=O)O [Lysine],effect on ELIC (agonist test),ELIC [1]; 1 mM,no effect
CC(C)[C@H](N)C(=O)O [Valine],effect on ELIC (agonist test),ELIC [1]; 1 mM,no effect
NC(=O)C[C@H](N)C(=O)O [Asparagine],effect on ELIC (agonist test),ELIC [1]; 1 mM,no effect
NCCc1c[nH]c2ccc(O)cc12 [5-HT],EC50,"ELIC [1]; 1 mM, read-out: pEC50 (EC50): agonist effect at the concentration shown (converted)",> 10 mM
same,effect on ELIC (agonist test),ELIC [1]; 10 mM,no ELIC responses
N=C(N)NCCC[C@H](N)C(=O)O [Arginine],effect on ELIC (agonist test),ELIC [1]; 1 mM,no effect
CCCC(C(=O)OCCN(CC)CC)(c1ccccc1)c1ccccc1 [Proadifen],nH,ELIC [2],2.9 ± 0.6
same,pIC50 (Mean ± SEM),ELIC [2],5.09 ± 0.04
same,IC50,ELIC [2]; IC50,< 20 µM
same,IC50,ELIC [2]; read-out: IC50,8.1 µM
N#Cc1nn(-c2c(Cl)cc(C(F)(F)F)cc2Cl)c(N)c1[S+]([O-])C(F)(F)F (stereo not shown) [Fipronil],inhibition of GLIC (yes/no),GLIC,inhibiting both receptors
same,inhibition of ELIC (yes/no),ELIC [2],inhibiting both receptors
same,nH,ELIC [2],1.8 ± 0.4
same,IC50,ELIC [2]; IC50,350 µM
same,IC50,ELIC [2]; pIC50 (Mean ± SEM),347 ± 4.01 µM
C[N+](C)(C)C [tetramethylammonium],IC50,ELIC [2]; read-out: IC50,~20000 µM
O=S1OC[C@@H]2[C@H](CO1)[C@@]1(Cl)C(Cl)=C(Cl)[C@]2(Cl)C1(Cl)Cl (stereo partly drawn) [α-endosulfan],IC50,GLIC; GLIC,17 µM
same,nH,ELIC [2],0.7 ± 0.2
same,IC50,ELIC [2]; IC50,17 µM
same,IC50,ELIC [2]; pIC50 (Mean ± SEM),17 µM
"COc1ccc(-c2ccc(=N)n(CCCC(=O)O)n2)cc1 [Gabazine (SR-95531), Gabazine]",effect when co-applied in the presence of GABA,ELIC [2],no effect
CC(C)C[C@H](N)C(=O)O [Leucine],effect on ELIC (agonist test),ELIC [1]; 1 mM,no effect
N[C@@H](CCC(=O)O)C(=O)O [L-glutamate],effect on ELIC (agonist test),ELIC [1]; 1 mM,no effect
same,effect on ELIC (agonist test),ELIC [1]; 10 mM,did not activate ELIC
CC(=O)[C@H]1CC[C@H]2[C@@H]3CCC4=CC(=O)CC[C@]4(C)[C@H]3CC[C@]12C [Progesterone],nH,ELIC [2],1.8 ± 0.58
same,IC50,ELIC [2]; IC50,150 µM
same,IC50,ELIC [2]; pIC50 (Mean ± SEM),151 µM
O=C1CCCO1 [γ-butyrolactone],effect on ELIC (agonist test),ELIC [1]; 10 mM,did not activate ELIC
N[C@@H](CS)C(=O)O [Cysteine],effect on ELIC (agonist test),ELIC [1]; 1 mM,no effect
